pKi: −log10 of the molar value. The source made the active and inactive calls. No cut-off for these calls is given here.
Legend:
Rattus norvegicus [1] = assay: In vivo 5-HIAA level was measured in killed rat limbic brain regions at a dose of 100 umol/kg, sc; type: functional, Limbic system; design: unit not given here
Rattus norvegicus [2] = assay: In vivo DOPAC level was measured in killed rat striatal brain regions at a dose of 100 umol/kg, sc; type: functional; design: unit not given here
Rattus norvegicus [3] = assay: In vivo HVA level was measured in killed rat striatal brain regions at a dose of 100 umol/kg, sc; type: functional; design: unit not given here
Rattus norvegicus [4] = assay: In vivo locomotor activity (LMA) in habituated rats at a dose of 100 umol/kg, sc, for 60 mins after 60 min habituation period; type: functional; design: unit not given here
[5] = Half-life was estimated from the elimination phase of the oral [C] vs time curves in 4 rats; type: ADME, organism-based; conditions: rat, in vivo
[6] = In vivo percent of absolute bioavailability obtained from blood plasma levels analyzed by means of GC/MS (dose 5 uM/kg i.v. and 40 uM/kg, p.o.); type: ADME, organism-based; conditions: rat, po
D(2) dopamine receptor [7] = biological target: T1, D(2) dopamine receptor (Homo sapiens, UniProt P14416); assay: Binding affinity was measured at cloned mammalian dopamine D2 receptor expressed in CHO-K1 cells (using [3H]U-86170); type: cell-based
D(3) dopamine receptor [8] = biological target: D(3) dopamine receptor (Homo sapiens, UniProt P35462); assay: Binding affinity was measured at cloned mammalian dopamine D3 receptor expressed in CHO-K1 cells (using [3H]- spiperone); type: cell-based
D(4) dopamine receptor [9] = biological target: T2, D(4) dopamine receptor (Homo sapiens, UniProt P21917); assay: Binding affinity was measured at cloned mammalian dopamine D4 receptor expressed in CHO-K1 cells (using [3H]- spiperone); type: cell-based
T2 sequence (P21917 whole entry): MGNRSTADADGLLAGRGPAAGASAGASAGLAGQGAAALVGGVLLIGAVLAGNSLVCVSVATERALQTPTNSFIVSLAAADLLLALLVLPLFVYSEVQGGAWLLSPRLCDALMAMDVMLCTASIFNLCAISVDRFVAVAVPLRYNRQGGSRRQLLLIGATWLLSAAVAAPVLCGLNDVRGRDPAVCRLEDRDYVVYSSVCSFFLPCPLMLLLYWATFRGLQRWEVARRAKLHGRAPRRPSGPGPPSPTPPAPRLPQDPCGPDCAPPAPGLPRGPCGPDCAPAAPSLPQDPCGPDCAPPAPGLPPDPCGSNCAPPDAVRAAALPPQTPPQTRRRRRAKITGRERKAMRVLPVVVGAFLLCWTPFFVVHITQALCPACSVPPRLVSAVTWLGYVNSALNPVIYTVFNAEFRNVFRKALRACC

Rattus norvegicus [10] = assay: In vivo 5-HIAA level was measured in killed rat limbic brain regions at a dose of 200 umol/kg, sc; type: functional, Limbic system
Rattus norvegicus [11] = assay: In vivo DOPAC level was measured in killed rat striatal brain regions at a dose of 200 umol/kg, sc; type: functional
Rattus norvegicus [12] = assay: In vivo HVA level was measured in killed rat striatal brain regions at a dose of 200 umol/kg, sc; type: functional
Rattus norvegicus [13] = assay: In vivo locomotor activity (LMA) in habituated rats at a dose of 200 umol/kg, sc, for 60 mins after 60 min habituation period; type: functional
[14] = biological target: 5-hydroxytryptamine receptor 1A (Homo sapiens, UniProt P08908); assay: (§1) Binding affinity was measured at cloned mammalian 5-HT1A receptor expressed in CHO-K1 cells (using [3H]8-OH-DPAT ); type: cell-based
[15] = biological target: T3, 5-hydroxytryptamine receptor 1A (Rattus norvegicus, UniProt P19327); assay: Binding affinity was measured at 5-HT1A receptor in rat striatal membranes using [3H]8-OH-DPAT; type: cell membranes, Striatum, Membrane
T3 sequence (P19327 whole entry): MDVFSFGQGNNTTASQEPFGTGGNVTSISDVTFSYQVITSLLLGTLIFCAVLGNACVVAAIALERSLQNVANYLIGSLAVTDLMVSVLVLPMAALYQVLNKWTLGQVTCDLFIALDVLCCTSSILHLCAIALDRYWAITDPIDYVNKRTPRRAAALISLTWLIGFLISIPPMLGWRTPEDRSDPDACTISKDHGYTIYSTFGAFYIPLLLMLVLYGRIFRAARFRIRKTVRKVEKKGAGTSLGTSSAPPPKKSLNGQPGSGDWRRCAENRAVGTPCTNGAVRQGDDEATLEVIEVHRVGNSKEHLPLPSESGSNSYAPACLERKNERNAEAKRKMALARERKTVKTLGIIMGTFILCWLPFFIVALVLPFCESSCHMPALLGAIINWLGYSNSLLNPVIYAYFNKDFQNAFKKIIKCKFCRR

Rattus norvegicus [16] = species: Rattus norvegicus; assay: In vitro stability relative to (+)-AJ76 in rat hepatocyte assay; In active; type: functional
Rattus norvegicus [17] = assay: In vivo 5-HIAA level was measured in killed rat limbic brain regions at a dose of 12.5 umol/kg, sc; type: functional, Limbic system
Rattus norvegicus [18] = assay: In vivo DOPAC level was measured in killed rat striatal brain regions at a dose of 12.5 umol/kg, sc; type: functional
Rattus norvegicus [19] = assay: In vivo HVA level was measured in killed rat striatal brain regions at a dose of 12.5 umol/kg, sc; type: functional
Rattus norvegicus [20] = assay: In vivo locomotor activity (LMA) in habituated rats at a dose of 12.5 umol/kg, sc, for 60 mins after 60 min habituation period; type: functional
Rattus norvegicus [21] = assay: In vivo locomotor activity (LMA) in habituated rats at a dose of 50 umol/kg, sc, for 60 mins after 60 min habituation period; type: functional
D(2) dopamine receptor [22] = biological target: T1, D(2) dopamine receptor; assay: Binding affinity was measured at cloned mammalian dopamine D2 receptor expressed in CHO-K1 cells (using [3H]U-86,170); NA means Inactive; type: cell-based
D(2) dopamine receptor [23] = biological target: T1, D(2) dopamine receptor; assay: Percent inhibition against dopamine D2 receptor at a concentration of 1 umol/L
D(3) dopamine receptor [24] = biological target: D(3) dopamine receptor (Rattus norvegicus, UniProt P19020); assay: Binding affinity was measured at cloned mammalian dopamine D3 receptor expressed in CHO-K1 cells (using [3H]- spiperone); NA means inactive; type: cell-based
[25] = biological target: D(3) dopamine receptor (Rattus norvegicus) (UniProt P19020); assay: Percent inhibition against dopamine D3 receptor at a concentration of 1 umol/L
D(2) dopamine receptor [26] = biological target: D(2) dopamine receptor (Rattus norvegicus, UniProt P61169); assay: Binding affinity was measured from rat striatal membrane using [3H]-spiperone at D2 receptors
D(4) dopamine receptor [27] = biological target: T2, D(4) dopamine receptor; assay: Binding affinity was measured at cloned mammalian dopamine D4 receptor expressed in CHO-K1 cells (using [3H]- spiperone); NA means inactive; type: cell-based
[28] = biological target: T4, D(4) dopamine receptor (Homo sapiens) (UniProt P21917); assay: Percent inhibition against dopamine D4 receptor at a concentration of 1 umol/L
T4 sequence (whole entry): T2 sequence (P21917 whole entry)

Rattus norvegicus [29] = assay: In vivo 5-HIAA level was measured in killed rat limbic brain regions at a dose of 25 umol/kg, sc; type: functional, Limbic system
Rattus norvegicus [30] = assay: In vivo DOPAC level was measured in killed rat striatal brain regions at a dose of 25 umol/kg, sc; type: functional
Rattus norvegicus [31] = assay: In vivo HVA level was measured in killed rat striatal brain regions at a dose of 25 umol/kg, sc; type: functional
Rattus norvegicus [32] = assay: In vivo locomotor activity (LMA) in habituated rats at a dose of 25 umol/kg, sc, for 60 mins after 60 min habituation period; type: functional
[33] = biological target: T5, 5-hydroxytryptamine receptor 1A (Homo sapiens, UniProt P08908); assay: as §1; type: cell-based; remark: listed apart in the source
T5 sequence (P08908 whole entry): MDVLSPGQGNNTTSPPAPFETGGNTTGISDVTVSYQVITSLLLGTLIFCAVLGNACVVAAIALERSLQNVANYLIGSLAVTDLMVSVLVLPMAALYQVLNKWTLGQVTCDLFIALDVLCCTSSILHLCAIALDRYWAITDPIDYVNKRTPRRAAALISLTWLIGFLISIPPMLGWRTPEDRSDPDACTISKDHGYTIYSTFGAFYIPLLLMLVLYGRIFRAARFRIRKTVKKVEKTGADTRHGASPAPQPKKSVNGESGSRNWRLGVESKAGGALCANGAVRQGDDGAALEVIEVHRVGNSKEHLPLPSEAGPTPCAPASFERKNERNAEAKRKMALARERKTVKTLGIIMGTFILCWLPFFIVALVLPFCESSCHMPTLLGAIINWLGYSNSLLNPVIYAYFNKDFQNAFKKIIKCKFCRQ

Rattus norvegicus [34] = assay: In vivo 5-HIAA level was measured in killed rat limbic brain regions at a dose of 100 umol/kg, oral; type: functional, Limbic system
Rattus norvegicus [35] = assay: In vivo DOPAC level was measured in killed rat striatal brain regions at a dose of 100 umol/kg, oral.; type: functional
Rattus norvegicus [36] = assay: In vivo HVA level was measured in killed rat striatal brain regions at a dose of 100 umol/kg, oral.; type: functional
Rattus norvegicus [37] = assay: In vivo locomotor activity (LMA) in habituated rats at a dose of 100 umol/kg, oral, for 60 mins after 60 min habituation period; type: functional
Rattus norvegicus [38] = assay: In vivo DOPAC level was measured in killed rat striatal brain regions at a dose of 50 umol/kg, sc; type: functional
Rattus norvegicus [39] = assay: In vivo HVA level was measured in killed rat striatal brain regions at a dose of 50 umol/kg, sc; type: functional
Rattus norvegicus [40] = assay: In vivo 5-HIAA level was measured in killed rat limbic brain regions at a dose of 50 umol/kg, sc; type: functional, Limbic system

T1 sequence (P14416 whole entry): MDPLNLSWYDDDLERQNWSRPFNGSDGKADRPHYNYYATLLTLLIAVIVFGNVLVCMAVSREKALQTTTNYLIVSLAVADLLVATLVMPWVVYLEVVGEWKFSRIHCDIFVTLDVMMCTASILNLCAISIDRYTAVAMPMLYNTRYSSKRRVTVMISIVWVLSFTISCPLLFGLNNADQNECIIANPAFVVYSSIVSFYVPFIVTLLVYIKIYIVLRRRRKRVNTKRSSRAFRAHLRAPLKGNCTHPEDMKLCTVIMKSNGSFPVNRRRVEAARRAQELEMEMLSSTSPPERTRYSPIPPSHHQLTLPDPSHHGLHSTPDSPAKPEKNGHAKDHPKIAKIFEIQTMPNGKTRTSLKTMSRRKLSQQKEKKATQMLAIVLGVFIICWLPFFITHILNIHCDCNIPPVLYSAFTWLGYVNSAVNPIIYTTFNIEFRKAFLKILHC
D(3) dopamine receptor (Homo sapiens, UniProt P35462), sequence (P35462 whole entry): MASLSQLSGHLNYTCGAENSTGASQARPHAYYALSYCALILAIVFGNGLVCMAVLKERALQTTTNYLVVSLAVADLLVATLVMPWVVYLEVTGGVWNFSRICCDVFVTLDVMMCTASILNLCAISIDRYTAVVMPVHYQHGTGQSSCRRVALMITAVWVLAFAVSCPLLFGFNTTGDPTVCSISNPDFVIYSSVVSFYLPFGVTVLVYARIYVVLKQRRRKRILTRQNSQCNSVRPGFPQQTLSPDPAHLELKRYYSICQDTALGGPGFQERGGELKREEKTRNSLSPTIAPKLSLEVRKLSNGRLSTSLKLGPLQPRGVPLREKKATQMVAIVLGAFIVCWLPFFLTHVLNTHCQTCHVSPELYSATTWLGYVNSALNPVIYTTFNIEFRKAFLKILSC
D(2) dopamine receptor (Rattus norvegicus, UniProt P61169), sequence (P61169 whole entry): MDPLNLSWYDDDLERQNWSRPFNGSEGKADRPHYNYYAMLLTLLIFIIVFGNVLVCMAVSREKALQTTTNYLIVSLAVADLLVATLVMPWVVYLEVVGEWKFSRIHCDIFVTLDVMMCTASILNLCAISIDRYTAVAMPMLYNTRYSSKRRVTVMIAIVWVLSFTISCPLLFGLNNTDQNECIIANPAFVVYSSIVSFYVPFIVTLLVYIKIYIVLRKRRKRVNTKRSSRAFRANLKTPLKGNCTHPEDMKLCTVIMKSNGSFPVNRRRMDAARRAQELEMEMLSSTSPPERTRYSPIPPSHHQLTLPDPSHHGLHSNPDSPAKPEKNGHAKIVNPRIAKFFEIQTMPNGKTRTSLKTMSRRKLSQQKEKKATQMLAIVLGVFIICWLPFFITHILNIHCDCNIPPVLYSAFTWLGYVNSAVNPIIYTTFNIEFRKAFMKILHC
D(3) dopamine receptor (Rattus norvegicus), sequence (P19020 whole entry): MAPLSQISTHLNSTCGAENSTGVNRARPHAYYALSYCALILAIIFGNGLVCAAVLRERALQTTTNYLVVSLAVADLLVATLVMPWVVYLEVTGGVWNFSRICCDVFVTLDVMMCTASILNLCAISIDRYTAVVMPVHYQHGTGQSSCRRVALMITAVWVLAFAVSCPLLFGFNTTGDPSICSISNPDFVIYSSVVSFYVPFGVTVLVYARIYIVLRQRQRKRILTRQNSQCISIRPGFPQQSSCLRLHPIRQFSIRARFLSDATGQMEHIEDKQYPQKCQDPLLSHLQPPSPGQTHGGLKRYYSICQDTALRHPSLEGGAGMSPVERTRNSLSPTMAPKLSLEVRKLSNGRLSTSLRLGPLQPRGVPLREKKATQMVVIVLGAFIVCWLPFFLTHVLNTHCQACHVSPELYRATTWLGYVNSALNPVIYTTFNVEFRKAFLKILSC
D(3) dopamine receptor (Rattus norvegicus, UniProt P19020), sequence (P19020 whole entry): as above

Structure (SMILES)	Activity (Rattus norvegicus [1])	Activity (Rattus norvegicus [2])	Activity (Rattus norvegicus [3])	Activity (Rattus norvegicus [4])	half-life [5] [h]	bioavailability [6] [%]	pKi (D(2) dopamine receptor [7])	pKi (D(3) dopamine receptor [8])	pKi (D(4) dopamine receptor [9])	Activity (Rattus norvegicus [10])	Activity (Rattus norvegicus [11])	Activity (Rattus norvegicus [12])	Activity (Rattus norvegicus [13])	pKi [14]	also measured
CCCN(CCC)[C@@H]1CCc2c(C(N)=O)cccc2[C@@H]1C	113	135	128	169	–	–	–	–	–	–	–	–	–	–	–
CCCN(CCC)[C@@H]1CCc2c(OS(=O)(=O)C(F)(F)F)cccc2[C@@H]1C	–	–	–	–	6	9.4	6.26	7.40	6.92	94	<146	<163	<250	< 5.46	–
CCCN[C@@H]1CCc2c(C(=O)OC)cccc2[C@@H]1C	–	–	–	–	–	–	5.63	6.60	5.80	<75	117	120	102	6.54	–
CCCN[C@@H]1CCc2c(OS(=O)(=O)C(F)(F)F)cccc2[C@@H]1C	–	–	–	–	6	62.2	5.59	6.77	6.21	92	<130	<135	167	5.51	–
CCCN[C@@H]1CCc2c(C(N)=O)cccc2[C@@H]1C	97	109	105	215	–	–	–	–	–	–	–	–	–	–	pKi [15]: 5.17
CCCN(CCC)[C@@H]1CCc2c(OC)cccc2[C@@H]1C	–	–	–	–	2.5	3.7	7.82	8.38	–	–	–	–	–	–	Activity (Rattus norvegicus [16]): inactive; Activity (Rattus norvegicus [17]): 119; Activity (Rattus norvegicus [18]): <176; Activity (Rattus norvegicus [19]): <214; Activity (Rattus norvegicus [20]): <191; Activity (Rattus norvegicus [21]): <200
CCCN[C@@H]1CCc2c(C#N)cccc2[C@@H]1C	100	<224	<248	149	–	–	–	–	–	–	–	–	–	–	Ki (D(2) dopamine receptor [22]): Not Active; inhibition (D(2) dopamine receptor [23]): < 50%; Ki (D(3) dopamine receptor [24]): Not Active; inhibition [25]: < 50%; pKi (D(2) dopamine receptor [26]): 4.78; Ki (D(4) dopamine receptor [27]): Not Active; inhibition [28]: < 50%; Activity (Rattus norvegicus [29]): 102; Activity (Rattus norvegicus [30]): 121; Activity (Rattus norvegicus [31]): 136; Activity (Rattus norvegicus [32]): 165; pKi [33]: < 5.75
CCCN(CCC)[C@@H]1CCc2c(C#N)cccc2[C@@H]1C	95	<213	<241	<334	–	–	–	–	–	–	–	–	–	–	pKi (D(2) dopamine receptor [26]): 5.18; Activity (Rattus norvegicus [34]): 82; Activity (Rattus norvegicus [29]): 93; Activity (Rattus norvegicus [35]): <128; Activity (Rattus norvegicus [30]): <127; Activity (Rattus norvegicus [36]): <166; Activity (Rattus norvegicus [31]): <134; Activity (Rattus norvegicus [37]): <287; Activity (Rattus norvegicus [32]): 125; pKi [15]: 5.30
CCCN[C@@H]1CCc2c(OC)cccc2[C@@H]1C	–	–	–	–	1	1.6	6.84	–	–	–	–	–	–	–	Activity (Rattus norvegicus [17]): 121; Activity (Rattus norvegicus [18]): <220; Activity (Rattus norvegicus [38]): <346; Activity (Rattus norvegicus [19]): <251; Activity (Rattus norvegicus [39]): <402; Activity (Rattus norvegicus [20]): <272; Activity (Rattus norvegicus [21]): <354; Activity (Rattus norvegicus [40]): 127
